Test results as given in paper PMC7662308, “Hevein-Like Antimicrobial Peptides Wamps: Structure–Function Relationship in Antifungal Activity and Sensitization of Plant Pathogenic Fungi to Tebuconazole by WAMP-2-Derived Peptides” (International Journal of Molecular Sciences, 2020).
In brackets after ≈: the same amount, converted by molar mass. Where two headings read alike, the source gives them in different places. Residues, ends and D or L forms follow the SMILES beside them.

Columns and labels:
B. sorokiniana [1] = type: cell-based, Bipolaris sorokiniana
Description: (§1) Conidia of Fusarium spp., A. alternata, B. sorokiniana, and C. cucumerinum were collected from the surface of their colonies on potato dextrose agar by flooding the mycelium with sterilized distilled water (SDW) and gently rubbing with a glass rod, while P. nodorum spores were obtained by washing off wheat kernels infested with the pathogen. The spores (conidia) were suspended in SDW (control) or in SDW-dissolved WAMPs, WAMP-2-derived peptides, the fungicide or their mixtures to a final concentration of 10^4–10^5 spores/mL and incubated at 20–22 °C for 5–6 or 12–16 h depending on the pathogen species. The number of germinated and non-germinated spores (500 ones of each pathogen per treatment) was counted in wells of a polystyrene culture plate using an inverted microscope followed by calculation of the percent of inhibition of the spore germination as compared to control.
(§2) For each pathogen, tests on evaluation of antifungal or sensitizing activity of WAMP homologues or their peptides (three replications per treatment, 500 counted conidia in each one) included at least two independent experimental series. Mean values, standard deviations (SD), standard errors (SE), and the significance of differences (p ≤ 0.05) of the means between treatments and controls (t-test for the independent variables) were determined using […] v. 6.1 software (StatSoft Inc., Tulsa, OK, USA).

F. avenaceum [2] = test: Inhibition of spore (conidia) germination, microplate assay; type: cell-based, Fusarium avenaceum; conditions: for IC50: WAMP-2-derived synthetic peptides, spore germination
Description: as §1, §2

F. oxysporum = type: cell-based, Fusarium oxysporum
Description: as §1, §2

C. cucumerinum = type: cell-based, Cladosporium cucumerinum
Description: as §1, §2

A. alternata [3] = type: cell-based, Alternaria alternata
Description: as §1, §2

F. culmorum [4] = test: Inhibition of spore (conidia) germination, microplate assay; type: cell-based, Fusarium culmorum; conditions: for IC50: WAMP-2-derived synthetic peptides, spore germination; for Inhibition of conidium germination: peptide alone, 400 μg/mL, mean of three experiments
Description: as §1, §2

P. nodorum [5] = type: cell-based, Parastagonospora nodorum
Description: as §1, §2

F. avenaceum [6] = test: Checkerboard sensitization assay, WAMP-2 fragment with Folicur EC 250 (tebuconazole), spore germination; type: cell-based, Fusarium avenaceum; conditions: effective tebuconazole–WAMP-2 fragment composition; FFCI ≤ 0.5 = synergy; MFC by probit analysis
Description: as §1, with “control. […]” for “control.”
(§3) The fragments were tested at concentrations ranging between 5, 10 and 50 μg/mL against B. sorokiniana, A. alternata or other cereal-pathogenic fungi (F. culmorum, F. avenacenum and P. nodorum), respectively, to concentrations that produced the inhibitory effect of ≤50%. The sub-fungicidal concentrations of tebuconazole were preliminarily determined for each pathogen through serial double or fivefold dilutions. […]

P. nodorum [7] = test: as above; type: cell-based, Parastagonospora nodorum; conditions: effective tebuconazole–WAMP-2 fragment composition; FFCI ≤ 0.5 = synergy; MFC by probit analysis
Description: as §1, with “control. […]” for “control.”
as §3

B. sorokiniana [8] = test: as above; type: cell-based, Bipolaris sorokiniana; conditions: effective tebuconazole–WAMP-2 fragment composition; FFCI ≤ 0.5 = synergy; MFC by probit analysis
Description: as §1, with “control. […]” for “control.”
as §3

F. culmorum [9] = test: as above; type: cell-based, Fusarium culmorum; conditions: effective tebuconazole–WAMP-2 fragment composition; FFCI ≤ 0.5 = synergy; MFC by probit analysis
Description: as §1, with “control. […]” for “control.”
as §3

A. alternata [10] = test system: A. alternata
Description: as §1, with “control. […]” for “control.”
as §3

[11] = peptide alone, 400 μg/mL, mean of three experiments
[12] = WAMP-2-derived synthetic peptides, spore germination

SMILES	IC50 (B. sorokiniana [1])	IC50 (F. avenaceum [2])	IC50 (F. oxysporum)	IC50 (C. cucumerinum)	IC50 (A. alternata [3])	IC50 (F. culmorum [4])	IC50 (P. nodorum [5])	Inhibition of conidium germination (F. culmorum [4])	other results
C[C@H](N)C(=O)N[C@@H](CCC(N)=O)C(=O)N[C@@H](CCCNC(=N)N)C(=O)N[C@@H](CS)C(=O)NCC(=O)N[C@@H](CC(=O)O)C(=O)N[C@@H](CCC(N)=O)C(=O)N[C@@H](C)C(=O)N[C@@H](CCCNC(=N)N)C(=O)NCC(=O)N[C@@H](C)C(=O)N[C@@H](CCCCN)C(=O)N[C@@H](CS)C(=O)O [WAMP-N] (H-AQRCGDQARGAKC-OH)	72.9 ± 12.4 µg/mL (≈ 53.5 µM)	>700 µg/mL	238.0 ± 32.4 µg/mL (≈ 175 µM)	280.2 ± 29.7 µg/mL (≈ 205 µM)	102.6 ± 19.6 µg/mL (≈ 75.2 µM)	332.4 ± 26.1 µg/mL (≈ 244 µM)	220.2 ± 13.5 µg/mL (≈ 161 µM)	–	Inhibition of conidium germination (F. avenaceum [2]; [11]): 40.4%
N=C(N)NCCC[C@H](NC(=O)[C@H](CS)NC(=O)CNC(=O)[C@H](CCCNC(=N)N)NC(=O)[C@H](CS)NC(=O)[C@H](CCC(N)=O)NC(=O)[C@H](CO)NC(=O)[C@H](CCC(N)=O)NC(=O)[C@H](CS)NC(=O)[C@H](CO)NC(=O)CNC(=O)[C@H](CCCCN)NC(=O)CN)C(=O)O [WAMP-C] (H-GKGSCQSQCRGCR-OH)	429.5 ± 51.5 µg/mL (≈ 314 µM)	–	>700 µg/mL	5.3 ± 0.1 µg/mL (≈ 3.87 µM)	550.4 ± 41.3 µg/mL (≈ 402 µM)	>700 µg/mL	329.6 ± 7.9 µg/mL (≈ 241 µM)	23%	–
CC(C)C[C@H](N)C(=O)N[C@@H](CS)C(=O)N[C@@H](CS)C(=O)NCC(=O)N[C@@H](CCCCN)C(=O)N[C@@H](Cc1ccc(O)cc1)C(=O)NCC(=O)N[C@@H](Cc1ccccc1)C(=O)N[C@@H](CS)C(=O)NCC(=O)N[C@@H](CO)C(=O)NCC(=O)O [WAMP-G1] (H-LCCGKYGFCGSG-OH)	273.1 ± 45.7 µg/mL (≈ 229 µM)	–	>700 µg/mL	>700 µg/mL	>700 µg/mL	>700 µg/mL	>700 µg/mL	–	–
C[C@H](NC(=O)[C@H](CC(=O)O)NC(=O)CNC(=O)[C@H](CO)NC(=O)CNC(=O)[C@H](CS)NC(=O)[C@H](Cc1ccccc1)NC(=O)CNC(=O)[C@H](Cc1ccc(O)cc1)NC(=O)[C@H](CCCCN)NC(=O)CNC(=O)[C@H](CS)NC(=O)[C@@H](N)CS)C(=O)N[C@@H](Cc1ccc(O)cc1)C(=O)N[C@@H](CS)C(=O)O [WAMP-G2] (H-CCGKYGFCGSGDAYC-OH; N-terminus and C-terminus assumed)	–	602.8 ± 3.1 µg/mL (≈ 393 µM)	–	–	–	>700 µg/mL	–	26.2%	FFCI (Fractional Fungicidal Concentration Index) (F. avenaceum [6]): 0.03; IC50 (B. sorokiniana [1]; [12]): 195.2 ± 36.8 µg/mL (≈ 127 µM); IC50 (F. oxysporum; [12]): 391.2 ± 34.2 µg/mL (≈ 255 µM); FFCI (Fractional Fungicidal Concentration Index) (P. nodorum [7]): 0.04; FFCI (Fractional Fungicidal Concentration Index) (B. sorokiniana [8]): 0.13; IC50 (C. cucumerinum; [12]): 410.2 ± 29.1 µg/mL (≈ 267 µM); FFCI (Fractional Fungicidal Concentration Index) (F. culmorum [9]): 0.02; IC50 (A. alternata [3]; [12]): 145.6 ± 29.4 µg/mL (≈ 94.9 µM); Inhibition of conidium germination (A. alternata [3]; [11]): 83.8%; IC50 (P. nodorum [5]; [12]): 424.1 ± 12.1 µg/mL (≈ 277 µM); type of peptide–fungicide interaction (A. alternata [10]; compositions 100 + 0.05 and 100 + 0.1 µg/mL (two of nine)): additive effect; FFCI (Fractional Fungicidal Concentration Index) (A. alternata [10]; effective tebuconazole–WAMP-2 fragment composition, FFCI ≤ 0.5 = synergy, MFC by probit analysis): 0.05
